The numbers were not newly measured in US10154967B2, “2,2′,6,6′-tetraisopropyl-4,4′-biphenol lipid microsphere preparations and preparation methods therefor” (XI'AN LIBANG PHARMACEUTICAL CO., LTD, priority 2012, dated 2018), which cites them from elsewhere.

Each structure is given as a SMILES string.

For data set [1] the following is noted: compared with propofol.
Data set [2] has as its system GABA receptors.
A further data set deals with NMDA receptors. Conditions: regulating the Ca2+ influx in Ca2+ channels.
The subject of data set [3] is GABA receptors. This is another data set of the same source.
Data set [4] concerns excitotoxic effect induced by kainate (kainic acid).

In the case of `CC(C)c1cc(-c2cc(C(C)C)c(O)c(C(C)C)c2)cc(C(C)C)c1O` [biphenol], the lipid solubility result is “highly lipid soluble” and the solubility in water entry is “difficult to dissolve in water”. Moreover, the antioxidant strength entry in data set [1] is given as “significantly stronger antioxidant than propofol”. Also, the “affinity towards GABA receptors” value with GABA receptors [2] is “strong affinity”. Besides, in the data set with patients, the loss of consciousness entry is “does not cause the patients to lose consciousness”. Besides, the “action at NMDA receptors” value in the data set on NMDA receptors is recorded as “antagonist”. Moreover, the “action at GABA receptors” value with GABA receptors [3] is recorded as “agonist”. Also, in data set [4], the “protection against the excitotoxic effect induced by kainate” value was “protection”.
